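Test compounds were applied to cells in 96-well plates for 48 hours at 5 doses. TGI: concentration producing complete growth inhibition.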

The subject of one test is DU-145 prostate. As to the kind of experiment: growth of human tumour cells (NCI), 48 h.
On to `O=C1c2c(ccc3c2CCCC3)CC12Cc1ccc3c(c1C2=O)CCCC3`, for which the TGI was above 100 µM.

`CCOC(CN=C=S)OCC` registered a TGI above 10 µM.

Take `COc1cccc(-c2c(C#N)c(N)nc3c2CCS(=O)(=O)c2ccc(C)cc2-3)c1`: the TGI was above 100 µM.

Consider `COC(=O)C(CC12CC3CC(CC(C3)C1)C2)NC(=O)C(N)CC(=O)O` (centres undefined), for which the TGI was above 100 µM.

Compound `O=C1C(Cl)=C(OCCCCl)C(=O)c2c(O)ccc(O)c21` yielded a TGI of 22.8 µM.

`Cc1nc2cccc(F)c2c(=O)n1C1CCCCNC1=O` (centres undefined) gave a TGI above 10 µM.

In the case of `O=Nc1c(O)cc(Nc2ccc(Br)cc2)c2ccccc12`, the TGI was 3.33 µM.

The compound `C=CC/C=C/Cc1csc(C(C)(C)C(O)C/C=C/C(=C)CCNC(=O)OC)n1` (centres undefined) gave a TGI above 100 µM.

Consider `CCN(CC)CCCNc1nc(=O)[nH]c(C)c1C(=O)Nc1cccc2cc3ccccc3cc12`, for which the TGI was above 100 µM.

The compound `c1ccc([P+](Cc2ccc(C[P+](c3ccccc3)(c3ccccc3)c3ccccc3)cc2)(c2ccccc2)c2ccccc2)cc1` registered a TGI above 100 µM.

In the case of `O=S(=O)(O)c1ccc(O)c2ncc(Cl)cc12`, the TGI was above 100 µM.

Compound `C[n+]1c2ccccc2c(C(=O)Nc2ccc(S(=O)(=O)Nc3ccnn3-c3ccccc3)cc2)c2ccccc21` had a TGI above 100 µM.

For the next test, the system named is LOX IMVI melanoma. As to the kind of experiment: growth of human tumour cells (NCI), 48 h.
In turn, `O=C(CCCN1CCC2(CC1)OC(=O)N(c1ccccc1)C2=O)c1ccccc1` came in with a TGI above 100 µM.

Regarding `O=C1c2c(ccc3c2CCCC3)CC12Cc1ccc3c(c1C2=O)CCCC3`, the TGI is above 100 µM.

Regarding `CCOC(CN=C=S)OCC`, the TGI was above 10 µM.

On to `COc1cccc(-c2c(C#N)c(N)nc3c2CCS(=O)(=O)c2ccc(C)cc2-3)c1`, for which the TGI is above 100 µM.

In turn, `O=C1C(Cl)=C(OCCCCl)C(=O)c2c(O)ccc(O)c21` gave a TGI of 3.35 µM.

In turn, `NC(=O)NNc1nc2ccccc2c(=O)n1NC(=O)C(=O)Nc1ccc(Cl)cc1Cl` gave a TGI above 100 µM.

As for `Cc1nc2cccc(F)c2c(=O)n1C1CCCCNC1=O` (centres undefined), the TGI is above 10 µM.

Consider `O=Nc1c(O)cc(Nc2ccc(Br)cc2)c2ccccc12`, for which the TGI was above 31.2 µM.

`C=CC/C=C/Cc1csc(C(C)(C)C(O)C/C=C/C(=C)CCNC(=O)OC)n1` (centres undefined) returned a TGI above 100 µM.

The compound `CCN(CC)CCCNc1nc(=O)[nH]c(C)c1C(=O)Nc1cccc2cc3ccccc3cc12` had a TGI above 100 µM.

Take `c1ccc([P+](Cc2ccc(C[P+](c3ccccc3)(c3ccccc3)c3ccccc3)cc2)(c2ccccc2)c2ccccc2)cc1`: the TGI stood at 50 µM.

The compound `O=S(=O)(O)c1ccc(O)c2ncc(Cl)cc12` returned a TGI above 100 µM.

For the compound `C[n+]1c2ccccc2c(C(=O)Nc2ccc(S(=O)(=O)Nc3ccnn3-c3ccccc3)cc2)c2ccccc21`, the TGI is above 100 µM.

The test system of the next test is SK-MEL-5 melanoma. The test is described as follows: growth of human tumour cells (NCI), 48 h.
In turn, `O=C(CCCN1CCC2(CC1)OC(=O)N(c1ccccc1)C2=O)c1ccccc1` displayed a TGI above 100 µM.

`O=C1c2c(ccc3c2CCCC3)CC12Cc1ccc3c(c1C2=O)CCCC3` returned a TGI above 100 µM.

For `CCOC(CN=C=S)OCC`, the TGI was above 10 µM.

With `COc1cccc(-c2c(C#N)c(N)nc3c2CCS(=O)(=O)c2ccc(C)cc2-3)c1`, the TGI was above 100 µM.

On to `CCOC(=O)c1c(N)sc2c1C(C(=O)OCC)CC2` (centres undefined), for which the TGI is above 100 µM.

On to `COC(=O)C(CC12CC3CC(CC(C3)C1)C2)NC(=O)C(N)CC(=O)O` (centres undefined), for which the TGI was above 100 µM.

For the compound `O=C1C(Cl)=C(OCCCCl)C(=O)c2c(O)ccc(O)c21`, the TGI turned out to be 3.33 µM.

`NC(=O)NNc1nc2ccccc2c(=O)n1NC(=O)C(=O)Nc1ccc(Cl)cc1Cl` yielded a TGI above 100 µM.

With `Cc1nc2cccc(F)c2c(=O)n1C1CCCCNC1=O` (centres undefined), the TGI was above 10 µM.

Compound `O=Nc1c(O)cc(Nc2ccc(Br)cc2)c2ccccc12` gave a TGI of 3.15 µM.

For `C=CC/C=C/Cc1csc(C(C)(C)C(O)C/C=C/C(=C)CCNC(=O)OC)n1` (centres undefined), the TGI is above 60.5 µM.

Turning to `CCN(CC)CCCNc1nc(=O)[nH]c(C)c1C(=O)Nc1cccc2cc3ccccc3cc12`, the TGI was above 100 µM.

As for `c1ccc([P+](Cc2ccc(C[P+](c3ccccc3)(c3ccccc3)c3ccccc3)cc2)(c2ccccc2)c2ccccc2)cc1`, the TGI was found to be 90.1 µM.

The compound `O=S(=O)(O)c1ccc(O)c2ncc(Cl)cc12` returned a TGI above 100 µM.

`C[n+]1c2ccccc2c(C(=O)Nc2ccc(S(=O)(=O)Nc3ccnn3-c3ccccc3)cc2)c2ccccc21` yielded a TGI above 100 µM.

The subject of a further test is MDA-N. The test is described as follows: growth of human tumour cells (NCI), 48 h.
Turning to `O=C(CCCN1CCC2(CC1)OC(=O)N(c1ccccc1)C2=O)c1ccccc1`, the TGI is above 100 µM.

Regarding `O=C1c2c(ccc3c2CCCC3)CC12Cc1ccc3c(c1C2=O)CCCC3`, the TGI is above 100 µM.

Compound `CCOC(CN=C=S)OCC` gave a TGI above 10 µM.

Turning to `COc1cccc(-c2c(C#N)c(N)nc3c2CCS(=O)(=O)c2ccc(C)cc2-3)c1`, the TGI was above 100 µM.

Compound `CCOC(=O)c1c(N)sc2c1C(C(=O)OCC)CC2` (centres undefined) displayed a TGI above 100 µM.

In the case of `COC(=O)C(CC12CC3CC(CC(C3)C1)C2)NC(=O)C(N)CC(=O)O` (centres undefined), the TGI is above 100 µM.

Take `O=C1C(Cl)=C(OCCCCl)C(=O)c2c(O)ccc(O)c21`: the TGI was determined as 2.98 µM.

Compound `NC(=O)NNc1nc2ccccc2c(=O)n1NC(=O)C(=O)Nc1ccc(Cl)cc1Cl` gave a TGI above 100 µM.

Compound `Cc1nc2cccc(F)c2c(=O)n1C1CCCCNC1=O` (centres undefined) returned a TGI above 10 µM.

The compound `O=Nc1c(O)cc(Nc2ccc(Br)cc2)c2ccccc12` yielded a TGI of 3.41 µM.

The compound `C=CC/C=C/Cc1csc(C(C)(C)C(O)C/C=C/C(=C)CCNC(=O)OC)n1` (centres undefined) showed a TGI above 100 µM.

The compound `CCN(CC)CCCNc1nc(=O)[nH]c(C)c1C(=O)Nc1cccc2cc3ccccc3cc12` had a TGI above 100 µM.

Take `c1ccc([P+](Cc2ccc(C[P+](c3ccccc3)(c3ccccc3)c3ccccc3)cc2)(c2ccccc2)c2ccccc2)cc1`: the TGI was above 100 µM.

The compound `O=S(=O)(O)c1ccc(O)c2ncc(Cl)cc12` had a TGI above 100 µM.

In the case of `C[n+]1c2ccccc2c(C(=O)Nc2ccc(S(=O)(=O)Nc3ccnn3-c3ccccc3)cc2)c2ccccc21`, the TGI is above 100 µM.

A further test has as its system HOP-92 NSCLC. The test is described as follows: growth of human tumour cells (NCI), 48 h.
As for `O=C(CCCN1CCC2(CC1)OC(=O)N(c1ccccc1)C2=O)c1ccccc1`, the TGI is above 100 µM.

Compound `O=C1c2c(ccc3c2CCCC3)CC12Cc1ccc3c(c1C2=O)CCCC3` had a TGI above 100 µM.

Compound `CCOC(CN=C=S)OCC` gave a TGI above 10 µM.

For `COc1cccc(-c2c(C#N)c(N)nc3c2CCS(=O)(=O)c2ccc(C)cc2-3)c1`, the TGI was above 100 µM.

As for `CCOC(=O)c1c(N)sc2c1C(C(=O)OCC)CC2` (centres undefined), the TGI was above 100 µM.

`COC(=O)C(CC12CC3CC(CC(C3)C1)C2)NC(=O)C(N)CC(=O)O` (centres undefined): the TGI is above 100 µM.

`O=C1C(Cl)=C(OCCCCl)C(=O)c2c(O)ccc(O)c21`: the TGI was 3.28 µM.

In turn, `NC(=O)NNc1nc2ccccc2c(=O)n1NC(=O)C(=O)Nc1ccc(Cl)cc1Cl` gave a TGI above 100 µM.

Turning to `Cc1nc2cccc(F)c2c(=O)n1C1CCCCNC1=O` (centres undefined), the TGI is above 10 µM.

As to `O=Nc1c(O)cc(Nc2ccc(Br)cc2)c2ccccc12`, the TGI was found to be 45.2 µM.

`C=CC/C=C/Cc1csc(C(C)(C)C(O)C/C=C/C(=C)CCNC(=O)OC)n1` (centres undefined) gave a TGI above 100 µM.

With `CCN(CC)CCCNc1nc(=O)[nH]c(C)c1C(=O)Nc1cccc2cc3ccccc3cc12`, the TGI was above 100 µM.

Regarding `c1ccc([P+](Cc2ccc(C[P+](c3ccccc3)(c3ccccc3)c3ccccc3)cc2)(c2ccccc2)c2ccccc2)cc1`, the TGI is 93.4 µM.

Turning to `O=S(=O)(O)c1ccc(O)c2ncc(Cl)cc12`, the TGI was above 100 µM.

(Values after PubChem BioAssay (NCI).)
